Results from patent publication US20240158348A1, “HERBICIDAL CYCLIC AMIDES N-SUBSTITUTED WITH A HALOALKYLSULFONYLANILIDE GROUP” (FMC Corporation, priority 2021, published 2024).

Columns and labels:
Type in all cases: in vivo
corn (Zea mays) [1] = experiment: Test C preemergence, corn; settings: 0 is no effect, 100 is complete control
Excerpt: (§1) Seeds of plant species selected from blackgrass (Alopecurus myosuroides), corn (Zea mays), foxtail, giant (giant foxtail, Setaria faberi), goosegrass (Eleusine indica), kochia (Bassia scoparia), oat, wild (wild oat, Avena fatua), pigweed, palmer (palmer amaranth, Amaranthus palmeri), ragweed (common ragweed, Ambrosia artemisiifolia), ryegrass, Italian (Italian ryegrass, Lolium multiflorum), soybean (Glycine max) and wheat (Triticum aestivum) were planted into a blend of loam soil and sand and treated preemergence with a directed soil spray using test chemicals formulated in a non-phytotoxic solvent mixture which included a surfactant.
(§2) At the same time, plants selected from these crop and weed species and also galium (catchweed bedstraw, Galium aparine) and horseweed (Erigeron canadensis) were planted in pots containing the same blend of loam soil and sand and treated with postemergence applications of test chemicals formulated in the same manner. Plants ranged in height from 2 to 10 cm and were in the one- to two-leaf stage for the postemergence treatment. Treated plants and untreated controls were maintained in a greenhouse for 10 or 12 days, after which time all treated plants were compared to untreated controls and visually evaluated for injury. Plant response ratings, summarized in Table A, are based on a 0 to 100 scale where 0 is no effect and 100 is complete control. A dash (-) response means no test result.

[2] = test system: foxtail, giant (giant foxtail, Setaria faberi); experiment: Test C preemergence, giant foxtail; settings: 0 is no effect, 100 is complete control
Excerpt: as §1, §2

[3] = test system: goosegrass (Eleusine indica); experiment: Test C preemergence, goosegrass; settings: 0 is no effect, 100 is complete control
Excerpt: as §1, §2

kochia (Bassia scoparia) [4] = experiment: Test C preemergence, kochia; settings: 0 is no effect, 100 is complete control
Excerpt: as §1, §2

[5] = test system: oat, wild (wild oat, Avena fatua); experiment: Test C preemergence, wild oat; settings: 0 is no effect, 100 is complete control
Excerpt: as §1, §2

[6] = test system: pigweed, palmer (palmer amaranth, Amaranthus palmeri); experiment: Test C preemergence, palmer amaranth; settings: 0 is no effect, 100 is complete control
Excerpt: as §1, §2

[7] = test system: ragweed (common ragweed, Ambrosia artemisiifolia); experiment: Test C preemergence, ragweed; settings: 0 is no effect, 100 is complete control
Excerpt: as §1, §2

[8] = test system: ryegrass, Italian (Italian ryegrass, Lolium multiflorum); experiment: Test C preemergence, Italian ryegrass; settings: 0 is no effect, 100 is complete control
Excerpt: as §1, §2

soybean (Glycine max) [9] = experiment: Test C preemergence, soybean; settings: 0 is no effect, 100 is complete control
Excerpt: as §1, §2

[10] = test system: wheat (Triticum aestivum); experiment: Test C preemergence, wheat; settings: 0 is no effect, 100 is complete control
Excerpt: as §1, §2

[11] = test system: blackgrass (Alopecurus myosuroides); experiment: Test C postemergence, blackgrass; settings: visual injury, 0 to 100 scale (0 no effect, 100 complete control)
Excerpt: as §1, §2

corn (Zea mays) [12] = experiment: Test C postemergence, corn; settings: visual injury, 0 to 100 scale (0 no effect, 100 complete control)
Excerpt: as §1, §2

[13] = test system: foxtail, giant (giant foxtail, Setaria faberi); experiment: Test C postemergence, giant foxtail; settings: visual injury, 0 to 100 scale (0 no effect, 100 complete control)
Excerpt: as §1, §2

[14] = test system: goosegrass (Eleusine indica); experiment: Test C postemergence, goosegrass; settings: visual injury, 0 to 100 scale (0 no effect, 100 complete control)
Excerpt: as §1, §2

kochia (Bassia scoparia) [15] = experiment: Test C postemergence, kochia; settings: visual injury, 0 to 100 scale (0 no effect, 100 complete control)
Excerpt: as §1, §2

[16] = test system: oat, wild (wild oat, Avena fatua); experiment: Test C postemergence, wild oat; settings: visual injury, 0 to 100 scale (0 no effect, 100 complete control)
Excerpt: as §1, §2

[17] = test system: pigweed, palmer (palmer amaranth, Amaranthus palmeri); experiment: Test C postemergence, palmer amaranth; settings: visual injury, 0 to 100 scale (0 no effect, 100 complete control)
Excerpt: as §1, §2

[18] = test system: ragweed (common ragweed, Ambrosia artemisiifolia); experiment: Test C postemergence, ragweed; settings: visual injury, 0 to 100 scale (0 no effect, 100 complete control)
Excerpt: as §1, §2

[19] = test system: ryegrass, Italian (Italian ryegrass, Lolium multiflorum); experiment: Test C postemergence, Italian ryegrass; settings: visual injury, 0 to 100 scale (0 no effect, 100 complete control)
Excerpt: as §1, §2

soybean (Glycine max) [20] = experiment: Test C postemergence, soybean; settings: visual injury, 0 to 100 scale (0 no effect, 100 complete control)
Excerpt: as §1, §2

[21] = test system: wheat (Triticum aestivum); experiment: Test C postemergence, wheat; settings: visual injury, 0 to 100 scale (0 no effect, 100 complete control)
Excerpt: as §1, §2

[22] = test system: galium (catchweed bedstraw, Galium aparine); experiment: Test C postemergence, galium; settings: visual injury, 0 to 100 scale (0 no effect, 100 complete control)
Excerpt: as §1, §2

[23] = test system: horseweed (Erigeron canadensis); experiment: Test C postemergence, horseweed; settings: visual injury, 0 to 100 scale (0 no effect, 100 complete control)
Excerpt: as §1, §2

[24] = test system: barnyardgrass (Echinochloa crusgalli); experiment: Test D flooded paddy test, barnyardgrass; parameters: key: 0 = no effect, 100 = complete control; settings: 250 g ai/ha, Flood; applied to paddy water at 2-leaf stage; visual rating after 13 days; scale 0 (no effect) to 100 (complete control)
Method: (§3) Plant species in the flooded paddy test selected from barnyardgrass (Echinochloa crusgalli), ducksalad (Heteranthera limosa), rice (Oryza sativa), and sedge, umbrella (small-flower umbrella sedge, Cyperus difformis) were grown to the 2-leaf stage for testing. At time of treatment, test pots were flooded to 3 cm above the soil surface, treated by application of test compounds directly to the paddy water, and then maintained at that water depth for the duration of the test. Treated plants and controls were maintained in a greenhouse for 13 days, after which time all species were compared to controls and visually evaluated. Plant response ratings, summarized in Table B, are based on a scale of 0 to 100 where 0 is no effect and 100 is complete control. A dash (-) response means no test result.

[25] = test system: ducksalad (Heteranthera limosa); experiment: Test D flooded paddy test, ducksalad; parameters: key: 0 = no effect, 100 = complete control; settings: 250 g ai/ha, Flood; applied to paddy water at 2-leaf stage; visual rating after 13 days; scale 0 (no effect) to 100 (complete control)
Method: as §3

rice (Oryza sativa) = experiment: Test D flooded paddy test, rice; parameters: key: 0 = no effect, 100 = complete control; settings: 250 g ai/ha, Flood; applied to paddy water at 2-leaf stage; visual rating after 13 days; scale 0 (no effect) to 100 (complete control)
Method: as §3

[26] = test system: sedge, umbrella (small-flower umbrella sedge, Cyperus difformis); experiment: Test D flooded paddy test, umbrella sedge; parameters: key: 0 = no effect, 100 = complete control; settings: 250 g ai/ha, Flood; applied to paddy water at 2-leaf stage; visual rating after 13 days; scale 0 (no effect) to 100 (complete control)
Method: as §3

Cc1cc(C)c(N2CCC(OCC3CCC3(F)F)C2=O)cc1NS(=O)(=O)C(F)(F)F (centres unmarked) [Compound 52]
Plant response rating (0 to 100 scale), Corn (corn (Zea mays) [1]; 31 g ai/ha Preemergence): 10 | Plant response rating (0 to 100 scale), Corn (corn (Zea mays) [1]; 125 g ai/ha Preemergence): 90 | Plant response rating (0 to 100 scale), Foxtail, Giant ([2]; 31 g ai/ha Preemergence): 90 | Plant response rating (0 to 100 scale), Foxtail, Giant ([2]; 125 g ai/ha Preemergence): 100 | Plant response rating (0 to 100 scale), Goosegrass ([3]; 31 g ai/ha Preemergence): 80 | Plant response rating (0 to 100 scale), Goosegrass ([3]; 125 g ai/ha Preemergence): 100 | Plant response rating (0 to 100 scale), Kochia (kochia (Bassia scoparia) [4]; 31 g ai/ha Preemergence): 70 | Plant response rating (0 to 100 scale), Kochia (kochia (Bassia scoparia) [4]; 125 g ai/ha Preemergence): 100 | Plant response rating (0 to 100 scale), Oat, Wild ([5]; 31 g ai/ha Preemergence): 20 | Plant response rating (0 to 100 scale), Oat, Wild ([5]; 125 g ai/ha Preemergence): 90 | Plant response rating (0 to 100 scale), Pigweed, Palmer ([6]; 31 g ai/ha Preemergence): 70 | Plant response rating (0 to 100 scale), Pigweed, Palmer ([6]; 125 g ai/ha Preemergence): 100 | Plant response rating (0 to 100 scale), Ragweed ([7]; 31 g ai/ha Preemergence): 0 | Plant response rating (0 to 100 scale), Ragweed ([7]; 125 g ai/ha Preemergence): 30 | Plant response rating (0 to 100 scale), Ryegrass, Italian ([8]; 31 g ai/ha Preemergence): 0 | Plant response rating (0 to 100 scale), Ryegrass, Italian ([8]; 125 g ai/ha Preemergence): 80 | Plant response rating (0 to 100 scale), Soybean (soybean (Glycine max) [9]; 31 g ai/ha Preemergence): 30 | Plant response rating (0 to 100 scale), Soybean (soybean (Glycine max) [9]; 125 g ai/ha Preemergence): 50 | Plant response rating (0 to 100 scale), Wheat ([10]; 31 g ai/ha Preemergence): 90 | Plant response rating (0 to 100 scale), Wheat ([10]; 125 g ai/ha Preemergence): 100 | Blackgrass plant response rating ([11]; 31 g ai/ha Postemergence): 20 | Blackgrass plant response rating ([11]; 125 g ai/ha Postemergence): 40 | Corn plant response rating (corn (Zea mays) [12]; 31 g ai/ha Postemergence): 0 | Corn plant response rating (corn (Zea mays) [12]; 125 g ai/ha Postemergence): 60 | Foxtail, Giant plant response rating ([13]; 31 g ai/ha Postemergence): 0 | Foxtail, Giant plant response rating ([13]; 125 g ai/ha Postemergence): 50 | Goosegrass plant response rating ([14]; 31 g ai/ha Postemergence): 0 | Goosegrass plant response rating ([14]; 125 g ai/ha Postemergence): 70 | Kochia plant response rating (kochia (Bassia scoparia) [15]; 31 g ai/ha Postemergence): 20 | Kochia plant response rating (kochia (Bassia scoparia) [15]; 125 g ai/ha Postemergence): 70 | Oat, Wild plant response rating ([16]; 31 g ai/ha Postemergence): 10 | Oat, Wild plant response rating ([16]; 125 g ai/ha Postemergence): 60 | Pigweed, Palmer plant response rating ([17]; 31 g ai/ha Postemergence): 0 | Pigweed, Palmer plant response rating ([17]; 125 g ai/ha Postemergence): 40 | Ragweed plant response rating ([18]; 31 g ai/ha Postemergence): 40 | Ragweed plant response rating ([18]; 125 g ai/ha Postemergence): 70 | Ryegrass, Italian plant response rating ([19]; 31 g ai/ha Postemergence): 40 | Ryegrass, Italian plant response rating ([19]; 125 g ai/ha Postemergence): 100 | Soybean plant response rating (soybean (Glycine max) [20]; 31 g ai/ha Postemergence): 60 | Soybean plant response rating (soybean (Glycine max) [20]; 125 g ai/ha Postemergence): 70 | Wheat plant response rating ([21]; 31 g ai/ha Postemergence): 20 | Wheat plant response rating ([21]; 125 g ai/ha Postemergence): 70 | Galium plant response rating ([22]; 31 g ai/ha Postemergence): 70 | Galium plant response rating ([22]; 125 g ai/ha Postemergence): 100 | Horseweed plant response rating ([23]; 31 g ai/ha Postemergence): 80 | Horseweed plant response rating ([23]; 125 g ai/ha Postemergence): 90 | Plant response rating, Barnyardgrass [24]: 20 | Plant response rating, Ducksalad [25]: 90 | Plant response rating, Rice (rice (Oryza sativa)): 0 | Plant response rating, Sedge, Umbrella [26]: 80
